“And” between values parts separate entries of the source, which are not always exact repeats. Equal entries are not always repeated. Where two headings read alike, the source gives them in different places.
Assay: Pharmacokinetics after repeated oral administration of 35 μg/kg of fluralaner in dogs after feeding
Assay type: in vivo, beagle dogs
Conditions: oral 35 μg/kg Days 0-3, dogs; for concentration at 480 h / concentration at 576 h / concentration at 672 h / AUC(0-inf) / AUC(0-t) / Cmax / half-life: beagle, dog, plasma, po; for concentration at 480 h / concentration at 576 h / concentration at 672 h: 35 μg/kg; for AUC(0-inf) / AUC(0-t) / Cmax / half-life: 35 ug/kg
Procedure: The first objective of the study was to obtain the pharmacokinetic parameters after repeated oral administration of 35 μg/kg of fluralaner in dogs, 30 to 35 minutes after feeding.
The second objective was to investigate the pharmacodynamics between the fluralaner plasmatic dose and the effectiveness against fleas. • IVP: Investigational Veterinary Product, is pure Fluralaner+DMSO (35 μg/kg on Days 0 to 3 (0.35 mL/kg)) • Control product is DMSO (0.35 mL/kg on Days 0 to 3)
On Days 0, 1, 2 and 3, all dogs assigned to group 2 received the Investigational Veterinary Product. On Days 0 to 3 all dogs in group 1 received the control product at a volume equal to the dogs in group 2. Dogs assigned to group 1 received the control product and served as Placebo controls. The quantity of Investigational Veterinary Product and control product administered was calculated according to the dog's individual body weight measured on Day −1.
Blood samples were taken from all dogs prior to Investigational Veterinary Product treatment or control product administration on Day 0 and on Days 1 (+24 hours), 2 (+48 hours), 3 (+72 hours), 4 (+96 hours), 5 (+120 hours), 10 (+240 hours), 15 (+360 hours), 20 (+480 hours), 24 (+576 hours) and Day 28 (+672 hours).
On days of administration of pre-Investigational Veterinary Product or Control Product, dogs were fed (the same dog food) approximately half of their normal daily ration 30 minutes to 35 minutes prior to administration. Food consumed by the time of administration was calculated and recorded. The remainder of their normal daily ration was fed immediately after administration.
The PK parameters of fluralaner were calculated using a non-compartmental approach.
The following rules were applied for the calculation of the PK parameters: • All the plasma concentrations, validated by the bioanalytical laboratory, were used for the PK analysis. • The actual blood sampling times were used throughout. • Concentrations below the Limit of Quantification (LOQ) value were considered as zero from time zero (pre-dose) up to the time at which the first quantifiable concentration above the LOQ value was observed. Concentrations below the LOQ value between two quantifiable concentrations were considered as missing. Trailing concentrations below the LOQ value were not used in calculations.
Cmax the observed maximum concentration in plasma measured after dosing.
tmax the time at which Cmax was apparent.
λz the terminal rate constant (λz) was estimated by log-linear regression analysis on data points visually assessed, to be on the terminal log-linear phase. For the slope of the terminal elimination phase to be accepted as reliable, the following criteria were used: • the terminal data points were apparently randomly distributed about a single straight line (on visual inspection), • a minimum of three data points, including the last measured data point and excluding Cmax, were available for the regression.
t1/2 the terminal plasma half-life (t1/2) was calculated according to the following equation: […]
AUC0-t the area under the concentration-time curve from time zero (pre-dose) to the time of last quantifiable concentration (t) was calculated using a linear trapezoidal method.
[AUC0-∞=AUC0-t+(Ct/λz)], where Ct was the observed concentration of drug for the last sample on the PK profile in which the drug was detected, and λz was as defined above.
The extrapolated area under the curve, expressed as a percentage of the total area, AUCinf, was also calculated as: Area Extra (%)=(AUC0-∞−AUC0-t)/AUC0-∞*100%.

[1] = n=6, read-out: fluralaner concentration levels, Mean
[2] = n=6, read-out: fluralaner concentration levels, Median
[3] = n=6, read-out: fluralaner concentration levels, Minimum
[4] = read-out: fluralaner concentration levels, individual animal
[5] = n=6, read-out: fluralaner concentration levels, GeoMean
[6] = n=6, read-out: fluralaner concentration levels, Maximum

## Cc1cc(C2=NOC(c3cc(Cl)cc(Cl)c3)(C(F)(F)F)C2)ccc1C(=O)NCC(=O)NCC(F)(F)F (stereo not drawn) [fluralaner, Fluralaner]
[1]
  concentration at 480 h: 0.0224 µg/mL
  concentration at 576 h: 0.0174 µg/mL
  concentration at 672 h: 0.0128 µg/mL
[2]
  concentration at 480 h: 0.0232 µg/mL
  concentration at 576 h: 0.0161 µg/mL
  concentration at 672 h: 0.0128 µg/mL
[3]
  concentration at 480 h: 0.0171 µg/mL
  concentration at 576 h: 0.0133 µg/mL
  concentration at 672 h: 0.0091 µg/mL
[4]
  concentration at 480 h: 0.0253 µg/mL
  concentration at 576 h: 0.0173 µg/mL
  concentration at 672 h: 0.016 µg/mL
[5]
  concentration at 576 h: 0.0171 µg/mL
  concentration at 672 h: 0.0125 µg/mL
[6]
  concentration at 576 h: 0.0222 µg/mL
  concentration at 672 h: 0.016 µg/mL
n=6, read-out: AUC 0-inf, GeoMean
  AUC(0-inf): 27.9 µg·h/mL
n=6, read-out: AUC 0-inf, Mean
  AUC(0-inf): 28.1 µg·h/mL
n=6, read-out: AUC 0-inf, Median
  AUC(0-inf): 28.3 µg·h/mL
n=6, read-out: AUC 0-t, GeoMean
  AUC(0-t): 23.9 µg·h/mL
n=6, read-out: AUC 0-t, Mean
  AUC(0-t): 23.9 µg·h/mL
n=6, read-out: AUC 0-t, Median
  AUC(0-t): 24 µg·h/mL
n=6, read-out: Cmax, GeoMean
  Cmax: 0.084 µg/mL
n=6, read-out: Cmax, Mean
  Cmax: 0.0844 µg/mL
n=6, read-out: Cmax, Median
  Cmax: 0.0869 µg/mL
n=6, read-out: t½ (terminal half-life), Mean (converted)
  half-life: 217 h
n=6, read-out: t½, GeoMean (converted)
  half-life: 214 h
n=6, read-out: t½, Median (converted)
  half-life: 233 h
read-out: AUC 0-inf, individual animal
  AUC(0-inf): 31 µg·h/mL
read-out: AUC 0-t, individual animal
  AUC(0-t): 25 µg·h/mL
read-out: Cmax, individual animal
  Cmax: 0.0718 µg/mL
read-out: maximum concentration (Cmax), range
  Cmax: 0.0718 to 0.0924 µg/mL
read-out: terminal half-life, range
  half-life: 155 to 261 h
read-out: t½, individual animal (converted)
  half-life: 261 h
  AUC 0-inf, individual animal: 26.895 µg·h/mL and 31.726 µg·h/mL and 29.67 µg·h/mL and 23.684 µg·h/mL and 25.369 µg·h/mL
  AUC 0-t, individual animal: 23.395 µg·h/mL and 26.334 µg·h/mL and 24.538 µg·h/mL and 21.644 µg·h/mL and 22.612 µg·h/mL
  AUC extrap, individual animal: 19.5% and 13.0% and 17.0% and 17.3% and 8.6% and 10.9%
  Cmax, individual animal: 0.0924 µg/mL and 0.0894 µg/mL and 0.0766 µg/mL and 0.0916 µg/mL and 0.0845 µg/mL
  Lambda z, individual animal: 0.0027 and 0.0030 (2×) and 0.0029 and 0.0045 and 0.0037
  t½, individual animal: 233.3 h and 233.6 h and 235.6 h and 155.2 h and 185.6 h
n=6
  AUC 0-inf, Maximum: 31.726 µg·h/mL
  AUC 0-inf, Minimum: 23.684 µg·h/mL
  AUC 0-t, Maximum: 26.334 µg·h/mL
  AUC 0-t, Minimum: 21.644 µg·h/mL
  AUC extrap, GeoMean: 13.82%
  AUC extrap, Maximum: 19.5%
  AUC extrap, Mean: 14.38%
  AUC extrap, Median: 15.00%
  AUC extrap, Minimum: 8.6%
  Cmax, Maximum: 0.0924 µg/mL
  Lambda z, GeoMean: 0.00324 h⁻¹
  Lambda z, Maximum: 0.0045
  Lambda z, Mean: 0.00329 h⁻¹
  Lambda z, Median: 0.00297 h⁻¹
  Lambda z, Minimum: 0.0027 h⁻¹
  t½, Maximum: 261.4 h
  t½, Minimum: 155.2 h

Reference: patent publication US12714696B2, “Low dose fluralaner compositions for protection against parasitic invertebrate pest” (VIRBAC, priority 2019, dated 2026)
